Source: patent US20190083460A1, “ANALGESIC COMPOUNDS” (ZENO ROYALTIES & MILESTONES, LLC, priority 2016, published 2019)

Test system: male ICR mice
Assay: Formalin Paw Test
Assay type: in vivo
Settings: 30 mg/kg intraperitoneal; for Early Phase: early/acute phase (0-10 minutes) after 2% formalin into hind paw; for Late Phase: late/tonic phase (10-35 minutes) after 2% formalin into hind paw
Description: One test compound or the vehicle was administered to each mouse in each test group (8 mice per group). Non-fasted male ICR mice weighing 23±3 g were used. Test compounds were administered at a concentration of 3 mg/kg, 10 mg/kg, 15 mg/kg, 30 mg/kg, 60 mg/kg, 100 mg/kg, 200 mg/kg or 300 mg/kg; morphine was administered at a concentration of 5 mg/kg; and acetaminophen was administered at a concentration of 200 mg/kg. The control group received the vehicle (5% DMSO/40% PEG400/20% HPbCD/Saline). After 30 or 60 minutes, a 2% formalin solution (0.02 mL) was injected into one hind paw (sub-plantar) of each mouse. Responses were measured every 5 minutes after the formalin injection for 35 minutes.
The results in Table A are for intraperitoneal administration. In Table A, ‘A’ designates <70 licks/sec, ‘B’ designates ≥70 licks/sec and <165 licks/sec, and ‘C’ designates ≥165 licks/sec.

Row | SMILES | Early Phase | Late Phase
1 | NC1CC2(COC2)C1 [Compound I-1] | B (‘B’ designates ≥70 licks/sec and <165 licks/sec) | B (‘B’ designates ≥70 licks/sec and <165 licks/sec)
2 | NC1CCCOCC1 (stereo not shown) [Compound I-4] | B (‘B’ designates ≥70 licks/sec and <165 licks/sec) | C (‘C’ designates ≥165 licks/sec)
